Test results: patent US9737523B2, “Anti-fibrogenic compounds, methods and uses thereof” (priority 2013, dated 2017)

How the values were obtained:
MMP-2 = MMP-2 expression in human dermal fibroblasts, Western blot; format: cell-based; details: various concentrations, 48 hours
Protocol: In another set of experiments, fibroblasts at 80% confluence were treated with either kynurenine or tryptophan at the indicated concentrations as mentioned in the result section in DMEM containing 2% FBS and antibiotics for 48 hours. Cells were then harvested by trypsinization and western blot analysis was performed.
(§1) Cells were harvested by Trypsin/EDTA and lysed with cell lysis buffer containing 50 mM Tris-HCl (pH7.40), 150 mM NaCl, 10 mM EDTA, 5 mM EGTA, 1% TritonX-100™, 0.5% Igepal CA-630, 0.025% NaN3 and protease inhibitor cocktail (Sigma™). Cell debris was removed by centrifugation at 20,000×g for 10 minutes. The protein concentration in supernatant was determined using the MicroBCA™ method (Pierce™, Rockford, Ill.). Proteins in supernatant were mixed with protein sample loading buffer (final concentration: 60 mM Tris-HCl (pH 6.80), 2% SDS, 10% glycerol, 1.5% β-mercaptoethanol, 0.002% bromophenol blue) and size fractioned by 10% of SDS-polyacrylamide gel. After proteins were transferred onto nitrocellulose membrane by iBlot™ (Invitrogen Life Technologies™), non-specific binding were blocked with phosphate buffer saline twenty 20 (PBS-T) containing 5% skim milk for 1 hour. The membrane was then incubated with primary antibody overnight. […]

fibronectin = test: Fibronectin mRNA in human dermal fibroblasts, real-time PCR; format: cell-based; details: various concentration
HACAT = test: MMP-1 expression in keratinocyte cell line HACAT, Western blot; format: cell-based, human; details: 12.5 to 150 μg/ml, 48 hours
Protocol: (§2) The squamous cell carcinoma (UMSCC) cell line derived from patients with head and neck cancer (ATCC™, Manassas, Va.) were maintained in RPMI-1640 medium with 10% FBS. The Human keratinocyte cell line HACAT (ATCC) and the carcinomic human alveolar basal epithelial cell line A549 (ATCC™) were cultured in DMEM with 10% FBS. The diploid lung fibroblasts IMR-90 (ATCC™) were maintained in Minimum Essential Medium (MEM, Invitrogen™) with 10% FBS.
(§3) Similarly, other cells such as synoviocytes, IMR-90, keratinocytes, UMSCC and A549 were treated with kynurenine at concentrations of 12.5 to 150 μg/ml in appropriate media for each cell type as described above for 48 hours. Cells were then harvested for western blot analysis.
as §1, with “gel.” for “gel. After proteins were transferred onto nitrocellulose membrane by iBlot™ (Invitrogen Life Technologies™), non-specific binding were blocked with phosphate buffer saline twenty 20 (PBS-T) containing 5% skim milk for 1 hour. The membrane was then incubated with primary antibody overnight.”

ERK1/2 [1] = test: ERK1/2 phosphorylation in dermal fibroblasts, Western blot; format: cell-based, human; details: 100 μg/ml
Protocol: as §1, with “overnight. After incubation with a secondary antibody for 1 hour, protein bands were visualized by an enhanced chemiluminescence (ECL™) detection system (Santa Cruz Biotechnology™, Santa Cruz, Calif.).” for “overnight.”

ERK1/2 [2] = test: Human phospho-kinase array in dermal fibroblasts; format: cell-based; details: 100 μg/ml, after 1 hour of treatment
Protocol: Protein phosphorylation was evaluated using the Human Phospho-Kinase Array™ (R&D System™) according to the manufacturer's instructions. Briefly, capture and control antibodies were spotted in duplicate on nitrocellulose membranes (total 46 kinase phosphorylation sites). Cell lysates (300 μg of total protein per array) were incubated with array overnight. The array was washed to remove unbound proteins, followed by incubation with the cocktail of biotinylated detection antibodies. After incubation with streptavidin-HPR for 30 minutes, signals were visualized by ECL detection system (Santa Cruz™). Blots were analyzed by densitometry, and protein Phosphorylation was Normalized to a Positive Control which was Represented in Each Membrane.

dermal keratinocytes = test: MMP-1 expression in primary dermal keratinocytes, Western blot; format: cell-based, human; details: 12.5 to 150 μg/ml, 48 hours
Protocol: Human foreskin keratinocytes were established as previously described (Ghahary et al., 1998). Cells were cultured in serum-free keratinocyte medium (KSFM; Invitrogen Life Technologies™) supplemented with bovine pituitary extract (50 μg/ml) and EGF (0.2 ng/ml). These cells were used at passages 2-5.
as §3
as §1, with “gel.” for “gel. After proteins were transferred onto nitrocellulose membrane by iBlot™ (Invitrogen Life Technologies™), non-specific binding were blocked with phosphate buffer saline twenty 20 (PBS-T) containing 5% skim milk for 1 hour. The membrane was then incubated with primary antibody overnight.”

IMR-90 = test: MMP-1 expression in lung fibroblast cell line IMR-90, Western blot; format: cell-based, human; details: IMR-90, 12.5 μg/ml to 150 μg/ml, 48 hours
Protocol: as §2, §3
as §1, with “gel.” for “gel. After proteins were transferred onto nitrocellulose membrane by iBlot™ (Invitrogen Life Technologies™), non-specific binding were blocked with phosphate buffer saline twenty 20 (PBS-T) containing 5% skim milk for 1 hour. The membrane was then incubated with primary antibody overnight.”

splenocytes = test: ConA-induced splenocyte proliferation; format: cell-based; details: 100 and 150 μg/ml
synoviocytes = test: MMP-1 expression in synoviocytes, Western blot; format: cell-based, human; details: 12.5 μg/ml to 150 μg/ml, 48 hours
Protocol: Synoviocytes were obtained by enzymatic digestion of synovial membrane from patients with rheumatoid arthritis during joint replacement with 1 mg/ml collagenase (Sigma™) in RPMI1640 (Invitrogen Life Technologies™) for 4 hours at 37° C. Dissociated cells were plated in synoviocyte growth medium (Cell Applications Inc.™, San Diego, Calif.) supplemented with penicillin G sodium (100 U/mL), streptomycin sulfate (100 μg/mL), and amphotericin B (0.25 μg/mL).
as §3
as §1, with “gel.” for “gel. After proteins were transferred onto nitrocellulose membrane by iBlot™ (Invitrogen Life Technologies™), non-specific binding were blocked with phosphate buffer saline twenty 20 (PBS-T) containing 5% skim milk for 1 hour. The membrane was then incubated with primary antibody overnight.”

MMP-3 = MMP-3 expression in human dermal fibroblasts, Western blot; format: cell-based; details: various concentrations, 48 hours, dose-dependent
Protocol: Cells were then harvested by trypsinization and western blot analysis was performed.
Cell debris was removed by centrifugation at 20,000×g for 10 minutes. The protein concentration in supernatant was determined using the MicroBCA™ method (Pierce™, Rockford, Ill.). Proteins in supernatant were mixed with protein sample loading buffer (final concentration: 60 mM Tris-HCl (pH 6.80), 2% SDS, 10% glycerol, 1.5% β-mercaptoethanol, 0.002% bromophenol blue) and size fractioned by 10% of SDS-polyacrylamide gel. After proteins were transferred onto nitrocellulose membrane by iBlot™ (Invitrogen Life Technologies™), non-specific binding were blocked with phosphate buffer saline twenty 20 (PBS-T) containing 5% skim milk for 1 hour. The membrane was then incubated with primary antibody overnight. After incubation with a secondary antibody for 1 hour, protein bands were visualized by an enhanced chemiluminescence (ECL™) detection system (Santa Cruz Biotechnology™, Santa Cruz, Calif.). […] The secondary antibodies were either goat anti-mouse IgG (H+L) HPR conjugate or goat anti-rabbit IgG (H+L) HPR conjugate (Bio-rad Laboratory™ (Mississauga, ON, Canada). Secondary antibodies were used at a concentration of 1:3000.

A549 = test: MMP-1 expression in lung epithelial carcinoma cell line A549, Western blot; format: cell-based, human; details: A549, 12.5 to 150 μg/ml, 48 hours
Protocol: as §2, §3
as §1, with “gel.” for “gel. After proteins were transferred onto nitrocellulose membrane by iBlot™ (Invitrogen Life Technologies™), non-specific binding were blocked with phosphate buffer saline twenty 20 (PBS-T) containing 5% skim milk for 1 hour. The membrane was then incubated with primary antibody overnight.”

Nc1ccccc1C(=O)CC(N)C(=O)O (racemic) [kynurenine]
MMP-2 expression versus untreated fibroblasts (MMP-2): no significant difference | fibronectin expression (mRNA) (fibronectin): capable of down-regulating | MMP-1 expression versus untreated controls (HACAT): did not significantly differ | time of peak ERK1/2 activation (ERK1/2 [1]): 8 h | ERK1/2 phosphorylation (ERK1/2 [1]; different times): phosphorylated | ERK1/2 activation (phospho-kinase array) (ERK1/2 [2]): activated | MMP-1 expression versus untreated controls (dermal keratinocytes): did not significantly differ | MMP-1 expression (IMR-90): up-regulated | reduction in conA-induced splenocyte proliferation (splenocytes; after 48 hours): about 2 fold | reduction in conA-induced splenocyte proliferation (splenocytes; after 96 hours): ~5 fold | MMP-1 expression (synoviocytes): up-regulated | MMP-3 expression (MMP-3): significantly increased | MMP-1 expression versus untreated controls (A549): did not significantly differ
